Patent US9949980B2, “Drugs to prevent HPV infection” (Wisconsin Alumni Research Foundation, priority 2008, dated 2018)
Entries after “also recorded” stand apart in the source; their conditions may differ.

Legend:
HPV16 virus = assay: Wild type HPV16 infection in 293T cells, early viral gene expression by real time PCR; assay type: cell-based; details: 5 to 10 μM (FIG. 3: 10 μM), 48 hours post infection
Protocol: FIG. 3. Inhibition of infection by HPV 16 virus. Shown is the relative efficiency of infection by HPV16 virus in 293T cells as scored by quantifying early viral transcription using real time PCR for E2 (dark grey bars), E5 (white bars) and E7 (light grey bars) containing mRNAs at 48 hours post-infection in the absence (DMSO—vehicle only, values set at 100%) or the presence of the indicated compound (10 μM concentration). Data points shown are the average of triplicate sample values. The dotted line indicates the normalized value for no drug (set as 100% infection value).
The 21 selected compounds were also tested for their ability to inhibit infection by bonafide HPV16 in 293T cells by measuring early viral gene expression by real time PCR at 48 hours post infection (FIG. 3) after treatment of the cell with 5 to 10 μM of each compound. Consistently with the data of reporter gene assays, HPV early gene expression was inhibited by Compounds 4, 13, 14, 18 and 20. Given the large differences in IC50 and CD50, and the reproducible capacity to inhibit infection by HPV16 pseudovirus and HPV16 virus in different cell types, Compounds 13 and 14 were selected for further analysis.
After 2 day infection, total RNA was isolated from infected cell lysate and treated with DNase I (Promega) as previously. (Pyeon, D. et al., Establishment of human papillomavirus infection requires cell cycle progression, PLos Pathog. 2009 February; 5(2):e1000318. Epub 2009 Feb. 27). Complementary DNA (cDNA) was synthesized from the normalized total RNA with the SuperScript cDNA synthesis kit (Invitrogen). All oligonucleotide primers (0.5 μM) for PCR are previously published (Pyeon D. et al., Production of infectious human papillomavirus independently of viral replication and epithelial cell differentiation, Proc. Nat'l Acad. Sci. USA, 2005 Jun. 28; 102(26):9311-6, Epub 2005 Jun. 15) or listed in Table 2.
Conventional PCR was performed with Taq DNA polymerase (Promega) and the following cycle: denaturation at 94° C. for 5 min, 42 cycles of 94° C. for 30 sec., 55° C. for 1 min., and 72° C. for 1 min., followed by extension at 72° C. for 7 min. Final products were analyzed by 1% agarose gel electrophoresis and ethidium bromide staining. Quantitative RT-PCR was performed using QuantiTect SYBR green PCR kit (Qiagen) with the following cycle: denaturation at 95° C. for 5 min. and 40 cycles of 95° C. for 30 sec., 55° C. for 30 sec., and 72° C. for 30 sec.

in vitro [1] = details: human
in vitro [2] = details: human; remark: listed apart in the source
Protocol: The protocol for the secondary screen was identical to that of the primary screen with the exception that all volumes were scaled up by a factor of four. RL activity was measured using the Renilla Luciferase Assay System (Promega).

Structure (SMILES)	Inhibition of HPV16 early gene expression (E2, E5, E7 mRNAs) (HPV16 virus)	viability at 52 h, 3.3 μM (in vitro [1]) [%]	viability at 52 h, 3.3 μM (in vitro [2]) [%]
CCCn1c2ccccc2c2nnc(SC(CC)C(=O)Nc3ccc(Cl)cn3)nc21 (stereo not shown) [Compound 13, N-(5-chloro-2-pyridinyl)-2-[(5-propyl-5H-[1,2,4]triazino[5,6-b]indol-3-yl)thio]butanamide]	reproducible and significant inhibition; also recorded: inhibited	–	–
Cc1cc(C(c2ccc(F)cc2)c2cc(C)c(NC(=O)c3ccccc3)c(C)c2)cc(C)c1NC(=O)c1ccccc1 [Compound 14, N,N′[[(4-fluorophenyl)methylene]bis(2,6-dimethyl-4,1-phenylene)]dibenzamide]	reproducible and significant inhibition; also recorded: inhibited	106	106
